Patent US7166614B2, “Tetrahydropyranyl cyclopentyl tetrahydroisoquinoline modulators of chemokine receptor activity” (Merck & Co., Inc., priority 2002, dated 2007)

Assays:
[1] = Storage stability at room temperature (air oxidation, LC-MS); type: physicochemical; conditions: stored in a scintillation vial at room temperature for three months; degradation by air oxidation; separation by reverse phase HPLC
Method: Separation by Gilson reverse phase HPLC provided two new products (Example 114 and 115) and 60% of the parent compound recovered. These compounds were analyzed by NMR and LC-MS to determine the structures.

CCR-2 receptor = target: T1, CCR-2 receptor (Homo sapiens, UniProt P41597); assay: CCR-2 binding assay (inhibition of 125I-MCP-1 binding); conditions: cis isomer compared with trans isomer, resolved on preparation plate; assay not specified
T1 construct: the endogenous CCR-2 receptor on various cell types including monocytes, THP-1 cells; endogenous in cells; host or cells: monocytes, THP-1 cells (or eukaryotic cells expressing the cloned receptor)
T1 sequence (P41597 whole entry): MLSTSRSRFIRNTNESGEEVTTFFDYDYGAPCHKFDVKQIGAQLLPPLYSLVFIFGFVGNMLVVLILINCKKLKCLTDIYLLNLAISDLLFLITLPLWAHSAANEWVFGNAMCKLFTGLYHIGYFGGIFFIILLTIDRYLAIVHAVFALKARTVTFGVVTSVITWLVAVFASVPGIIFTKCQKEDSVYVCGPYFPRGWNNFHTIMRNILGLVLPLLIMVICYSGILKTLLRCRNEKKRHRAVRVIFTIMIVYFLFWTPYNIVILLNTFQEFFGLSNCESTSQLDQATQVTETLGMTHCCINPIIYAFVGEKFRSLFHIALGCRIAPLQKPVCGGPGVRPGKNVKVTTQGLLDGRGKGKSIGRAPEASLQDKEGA
Method: Receptor affinity in a CCR-2 binding assay was determined by measuring inhibition of ^125I-MCP-1 to the endogenous CCR-2 receptor on various cell types including monocytes, THP-1 cells, or after heterologous expression of the cloned receptor in eukaryotic cells. The cells were suspended in binding buffer (50 mM HEPES, pH 7.2,5 mM MgCl2, 1 mM CaCl2, and 0.50% BSA) with and added to test compound or DMSO and ^125I-MCP-1 at room temperature for 1 h to allow binding. The cells were then collected on GFB filters, washed with 25 mM HEPES buffer containing 500 mM NaCl and cell bound ^125I-MCP-1 was quantified.

Row | SMILES | parent compound recovered after storage [1] [%] | relative activity of cis vs trans isomer (CCR-2 receptor)
1 | CC(C)[C@]1(C(=O)N2CCc3ccc(C(F)(F)F)cc3C2)CC[C@@H](NC2CCOCC2F)C1 (some centres unmarked) [Example 96] | 60 | 
2 | CSC1(C(=O)N2CCc3ccc(C(F)(F)F)cc3C2)CC[C@@H](NC2CCOCC2)C1 (some centres unmarked) [Example 3] |  | more active
